# In patent publication US8394367B2, “IL6R/IL6 chimera for therapy of chemotherapy-induced peripheral neuropathy” (Yeda Research and Development Co., Ltd., priority 2004, dated 2013):
# Entries after “also recorded” stand apart in the source; their conditions may differ.
# Tests used:
# [1] = test system: dorsal root ganglia (DRG) cultures; experiment: Protection of the axonal network in DRG cultures intoxicated by vincristine (βIII-tubulin immunostaining); type: cell-based, mouse; details: 10 nM vincristine for 2 days; βIII-tubulin staining
# Procedure: (§1) IL-6R/IL-6 chimera (Chebath et al, 1997) was used to explore prevention against vincristine intoxication in vitro. For this purpose, cultures of dorsal root ganglia (DRG) from mouse embryos (day E17) in which neuronal outgrowth was stimulated by Nerve Growth Factor (NGF), were subsequently exposed to 10 nM vincristine which induces a progressive axonal degeneration process (Wang et al., J Neuropathol Exp Neurol. 2000 July; 59(7):599-606). […] Neurodegeneration was further examined by monitoring the proteolytic activation of caspase-3, which denotes the early stages of apoptosis in various neuropathies (Russell et al, Neurobiol Dis. 1999 October; 6(5):347-63).
# (§2) DRGs were prepared as detailed before (Haggiag et al, 1999, 2001) from embryos of (C57BL/6×129Sv) F1 mice. In some experiments, corresponding IL-6−/− mutant mice were used (Mendel et al, 1998). The DRGs were seeded onto glass coverslips (precoated with a solution of 20 μg/ml poly-D-lysine, 250 μg/ml fibronectin), which were placed in 12-well Costar plates. The regular culture medium was 0.5 ml DMEM/F12 medium with 1% N2 supplement, 10% fetal bovine serum, 2% horse serum, 1.4 mM glutamine (all from Gibco/Invitrogen) and 50 ng/ml NGF (2.5S; Alomone Labs, Jerusalem, Israel). Cultures were maintained at 37° C., 5% CO2 and medium replaced every third day. […]
# [2] = test system: activated caspase-3 in DRG cultures; experiment: Caspase-3 activation (apoptosis) in DRG cultures treated with vincristine; type: cell-based, mouse; details: 10 nM vincristine for 5 days
# Procedure: as §1, §2
# [3] = test system: dorsal root ganglia (DRG) cultures; experiment: Regeneration of DRG cultures after vincristine removal (βIII-tubulin and GFAP immunostaining); type: cell-based, mouse; details: 5 nM vincristine day 5 to 10, 6 more days without drug; IL-6-/- DRG
# From the text: I further investigated whether the IL-6R/IL-6 could have neural regenerative effects by adding IL-6R/IL-6 after the action of vincristine had taken place. Cultures in which the axonal network was formed in the presence of NGF for 5 days were either continued for another 11 days without or with IL-6R/IL-6 (Panel A and B, respectively), or treated for 5 days by vincristine at which time vincristine was removed and culture continued for 6 more days (panels C-F). […] These experiments indicate that IL-6R/IL-6 chimera promotes regeneration of neural and glial cells when added after exposure to the chemotherapeutic agent.
# as §2
# [4] = test system: peripheral neuropathy caused by carboplatin/paclitaxel; details: at the doses and regime tested; cited from earlier work
Compound,Loss of axons in DRG outgrowth caused by vincristine [1],Caspase-3 activation caused by vincristine [2],Degeneration of the axonal network 6 days after vincristine removal [3],Prevention of CIPN in clinical trials [4]
CC[C@]1(O)C[C@H]2CN(CCc3c([nH]c4ccccc34)[C@@](C(=O)OC)(c3cc4c(cc3OC)N(C=O)[C@H]3[C@@](O)(C(=O)OC)[C@H](OC(C)=O)[C@]5(CC)C=CCN6CC[C@]43[C@@H]65)C2)C1 [vincristine],considerable loss of axons; also recorded: extensive neurodegeneration,Positive reaction to antibodies against activated caspase-3,extensive degeneration of the axonal network was still observed; also recorded: extensive degeneration of the axonal network was still present,–
"LIF: recombinant leukemia inhibitor factor (LIF), another gp130 activator",–,–,–,ineffective
